For 33 molecules, RP-LC retention time results are on record in the METLIN SMRT retention time set (Domingo-Almenara et al. 2019).

The series can be described thus: gradient 5% acetonitrile 3 min, to 50% in 2 min, to 85% in 15 min, held 3 min, 100 µL/min. The note with it: column: Zorbax Extend-C18 2.1 x 50 mm; eluents: water / acetonitrile, 0.1% formic acid. The method in brief: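 Mixtures of ~100 pure standards were chromatographed on a Zorbax Extend-C18 column (2.1 × 50 mm, 1.8 μm) at 100 μL/min using water and acetonitrile, each with 0.1% formic acid. Detection used a quadrupole time-of-flight mass spectrometer in positive and negative ionization mode, and data collection spanned 3 months. Retention time was obtained from adduct peaks picked computationally and each checked manually.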
`COc1ccc(/C=C/c2nc(Cn3c(C)nc4ccccc4c3=O)no2)cc1` gave an RP-LC retention time of 871 s. The result for `CCC(C)NC(=O)c1ccc2c(c1)N(C)C(=O)CS2` (stereo not drawn) reads 734 s; that for `Cc1ccccc1S(=O)(=O)Cc1ccc(C(=O)N2CCN(c3ccccn3)CC2)o1`, 613 s. The result for `O=C(c1cccc(F)c1)N1CCN(c2cnn3c(C4CC4)nnc3c2)CC1` reads 648 s; that for `CC1CCN(c2cc(-c3noc(C(=O)NCc4ccco4)n3)ccn2)CC1`, 808 s.

The molecule `O=C(Nc1ccccc1F)N1CCC(n2cnc3ccc(F)cc3c2=O)CC1` showed an RP-LC retention time of 743 s.

`CCCNC(=O)c1ccc2c(=O)n(Cc3ccc(C)cc3)c(N(CC)CC)nc2c1`: the RP-LC retention time was 1060 s.

`C=CCN1C(=O)COc2ccc(-c3csc(NC(=O)c4ccco4)n3)cc21`: the RP-LC retention time came to 882 s. The result for `Cc1ccc(CNC(=O)c2cc3sccc3n2C)cc1` reads 958 s.

In turn, `COc1ccc(S(=O)(=O)N2C[C@@H](F)C[C@H]2C(=O)N2CCCCC2)cc1` yielded an RP-LC retention time of 762 s. The result for `CCn1cc(CCN2CCN(S(=O)(=O)c3ccc(C#N)cc3)CC2)c2cccnc21` reads 634 s; that for `c1cn(-c2cc(NC3CCCCC3)ncn2)cn1`, 617 s; that for `COc1cc(=O)n(-c2ccccc2C)nc1C(=O)Nc1nc2ccc(C)cc2s1`, 861 s. `CCNC(=O)N1[C@H]2CC[C@@H]1c1cnc(-c3ccc(F)cc3)nc1C2`: the RP-LC retention time was found to be 768 s. Then `CNC(=O)C1CCCN(c2nc3ncn(CC(=O)Nc4ccc(F)c(Cl)c4)c(=O)c3s2)C1` (stereo not drawn), with 693 s; and `O=C([C@@H]1C[C@H](F)CN1S(=O)(=O)Cc1ccc(Cl)cc1)N1CCc2ccccc2C1`, with 1020 s. For the molecule `COCCCN(CC(=O)N1CCc2sccc2C1COc1ccc(F)cc1)C(C)=O` (stereo not drawn), the RP-LC retention time was determined as 802 s. The result for `COCC(=O)Nc1ccc(N2CCC(N3CCCCC3)CC2)cc1C(=O)O` reads 654 s. The result for `COc1cccc(NS(=O)(=O)c2cc(-c3nc(C)c(C(=O)N4CCCC4)s3)cs2)c1` reads 844 s. Consider `Cn1cnc(S(=O)(=O)N2[C@H]3CC[C@@H]2c2cnc(-c4ccccc4)nc2C3)c1`, for which the RP-LC retention time stood at 763 s. Then `COc1ccc(NC(=O)N2CCCC(C)(C(=O)NCc3ccccc3)C2)c(OC)c1` (stereo not drawn), with 846 s; and `O=C(CC1CCCC1)NCCn1c(=O)n(Cc2ccc(F)cc2)c2cccnc21`, with 814 s; and `CSc1nc2ccc3nc(NC(=O)c4cnccn4)sc3c2s1`, with 927 s. Take `Cn1ncc2c3ccccc3n(CC(=O)NCCCN3CCCCCC3)c2c1=O`: the RP-LC retention time was determined as 561 s. The result for `CC(C)(C)C(=O)N1CCC(C(=O)Nc2nnc(CCCc3ccccc3)s2)CC1` reads 893 s. The result for `CCOC(=O)c1cccc(NC(=O)NC2CCN(c3ccc(F)cc3)C2=O)c1` (stereo not drawn) reads 824 s; that for `COc1ccc(C2(C(=O)N3CCC(OCCOc4ccc(F)cc4)CC3)CC2)cc1`, 997 s. Regarding `O=C(c1ccoc1)N1CCC(OCc2nc(C3CC3)no2)CC1`, the RP-LC retention time worked out at 719 s. Consider `O=C(Nc1cccc2nsnc12)C1CCN(S(=O)(=O)N2CCOCC2)CC1`, for which the RP-LC retention time is 775 s.

Regarding `Cn1cc(-c2nc(C(=O)N3CCN(c4ccccc4F)CC3)cs2)c2cccnc21`, the RP-LC retention time amounted to 956 s. The result for `CN(C)C(=O)c1csc(S(=O)(=O)N2CCC(C(=O)NC3CC3)CC2)c1` reads 626 s; that for `Cc1[nH]cnc1CN1CCc2c(c3ccccc3n2C)C1=O`, 652 s; that for `Cc1cc(OCC(=O)N[C@@H](CC(C)C)C(=O)O)c2c3c(c(=O)oc2c1)CCC3`, 822 s.
